The results in this text go back to patent US9035056B2, “Pyrido[4,3-b]indole and pyrido[3,4-b]indole derivatives and methods of use” (Medivation Technologies, Inc., priority 2011, dated 2015).

Assay [1] addresses T1, human recombinant histamine H1 receptor (Homo sapiens, UniProt P35367).
T1 construct: expressed in transfected cells; host or cells: CHO-K1
The experiment in a line: Histamine H1 radioligand binding ([3H]Pyrilamine). The note with it: 0.1 μM compound; for inhibition at 0.1 µM: read-out: Binding data (Percentage inhibition) Histamine H1 (0.1 μM). As for the experimental part: To evaluate in radioligand binding assays the activity of compounds of the invention, human recombinant histamine H1 receptor expressed in Chinese hamster ovary (CHO) K1 cells (De Backer, M. et al, Biochem. Biophys. Res. Comm. 197(3):1601, 1993) in a modified Tris-HCl buffer (50 mM Tris-HCl, pH 7.4, 2 mM MgCl2, 100 mM NaCl, 250 mM Sucrose) was used. Compounds of the invention were incubated with 1.2 nM [^3H]Pyrilamine for 180 min at 25° C. Non-specific binding was estimated in the presence of 1 μM Pyrilamine. Receptor proteins were filtered and washed, the filters were then counted to determine [^3H]Pyrilamine specifically bound. Compounds were screened at 1 μM or lower, using 1% DMSO as vehicle. Biochemical assay results are presented as the percent inhibition of specific binding in Table 3.

Assay [2] has as its target T2, human recombinant serotonin (5-Hydroxytryptamine) 5-HT2C receptor (Homo sapiens, UniProt P28335).
T2 construct: expressed in transfected cells; host or cells: CHO-K1
T2 sequence (P28335 33-458): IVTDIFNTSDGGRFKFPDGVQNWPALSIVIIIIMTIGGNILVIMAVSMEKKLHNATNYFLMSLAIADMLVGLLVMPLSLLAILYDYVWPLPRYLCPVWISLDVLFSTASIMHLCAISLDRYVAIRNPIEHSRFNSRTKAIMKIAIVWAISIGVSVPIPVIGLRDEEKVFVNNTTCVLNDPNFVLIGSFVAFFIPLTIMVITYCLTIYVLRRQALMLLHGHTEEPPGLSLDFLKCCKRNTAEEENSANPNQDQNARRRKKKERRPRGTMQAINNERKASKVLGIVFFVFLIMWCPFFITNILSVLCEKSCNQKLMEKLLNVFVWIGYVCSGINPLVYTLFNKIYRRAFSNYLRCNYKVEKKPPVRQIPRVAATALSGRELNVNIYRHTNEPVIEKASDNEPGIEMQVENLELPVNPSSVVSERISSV
The experiment in a line: Serotonin 5-HT2C radioligand binding ([3H]Mesulergine). The note with it: 0.1 μM compound; for Percentage inhibition of ligand binding, Serotonin 5-HT2C: 0.1 µM; for inhibition at 0.1 µM: read-out: Percentage inhibition of ligand binding, Serotonin 5-HT2C. The procedure:
To evaluate in radioligand binding assays the activity of compounds of the invention, human recombinant serotonin (5-Hydroxytryptamine) 5-HT2C receptor expressed in Chinese hamster ovary (CHO) K1 cells (Wolf, W. et al, J. Neurochem. 69:1449, 1997) in a modified Tris-HCl buffer (50 mM Tris-HCl, pH 7.4, 0.1% Ascorbic Acid, 10 μM Pargyline) was used. Compounds of the invention were incubated with 1 nM [^3H]Mesulergine for 60 min at 25° C. Non-specific binding was estimated in the presence of 1 μM Mianserin. Receptor proteins were filtered and washed, the filters were then counted to determine [^3H]Mesulergine specifically bound. Compounds were screened at 1 μM or lower, using 1% DMSO as vehicle. Biochemical assay results are presented as the percent inhibition of specific binding in Table 5.

Assay [3] deals with T3, human recombinant serotonin (5-Hydroxytryptamine) 5-HT7 receptor (Homo sapiens, UniProt P34969).
T3 construct: expressed in transfected cells; host or cells: CHO
The experiment in a line: Serotonin 5-HT7 radioligand binding ([3H]LSD). The note with it: 0.1 μM compound; read-out: Percentage inhibition of ligand binding, Serotonin 5-HT7. The procedure:
To evaluate in radioligand binding assays the activity of compounds of the invention, human recombinant serotonin (5-Hydroxytryptamine) 5-HT7 receptor expressed in Chinese hamster ovary (CHO) cells (Roth, B. et al, J. Pharmacol. Exp. Ther. 268:1403, 1994; Shen, Y. et al, J. Biol. Chem. 268:18200, 1993) in a modified Tris-HCl buffer (50 mM Tris-HCl, pH 7.4, 10 mM MgCl2, 0.5 mM EDTA) was used. Compounds of invention were incubated with 5.5 nM [^3H] Lysergic acid diethylamide (LSD) for 2 h at 25° C. Non-specific binding was estimated in the presence of 10 μM Serotonin (5-HT). Receptor proteins were filtered and washed, the filters were then counted to determine [^3H]LSD specifically bound. Compounds were screened at 1 μM or lower, using 1% DMSO as vehicle. Biochemical assay results are presented as the percent inhibition of specific binding in Table 5.

In assay [4] the target is T4, human recombinant dopamine D2L receptor (Homo sapiens, UniProt P14416).
T4 construct: expressed in transfected cells; host or cells: CHO
The experiment in a line: Dopamine D2L radioligand binding ([3H]Spiperone). The note with it: 1 μM compound; read-out: Percentage inhibition of ligand binding, Dopamine D2L. As for the experimental part: To evaluate in radioligand binding assays the activity of compounds of the invention, human recombinant dopamine D2L receptor expressed in Chinese hamster ovary (CHO) cells (Grandy, D. et al, Proc. Natl. Acad. Sci. USA. 86:9762, 1989; Hayes, G. et al, Mol. Endocrinol. 6:920, 1992) in a modified Tris-HCl buffer (50 mM Tris-HCl, pH 7.4, 1.4 mM Ascorbic Acid, 0.001% BSA, 150 mM NaCl) was used. Compounds of the invention were incubated with 0.16 nM [^3H]Spiperone for 120 min at 25° C. Non-specific binding was estimated in the presence of 10 μM Haloperidol. Receptor proteins were filtered and washed, the filters were then counted to determine [^3H]Spiperone specifically bound. Compounds were screened at 1 μM or lower, using 1% DMSO as vehicle. Biochemical assay results are presented as the percent inhibition of specific binding in Table 4.

For assay [5], the target named is T5, human recombinant serotonin (5-Hydroxytryptamine) 5-HT6 receptor (Homo sapiens, UniProt P50406).
T5 construct: expressed in transfected cells; host or cells: HeLa
The experiment in a line: Serotonin 5-HT6 radioligand binding ([3H]LSD). The note with it: 0.1 μM compound; read-out: Percentage inhibition of ligand binding, Serotonin 5-HT6. The procedure: To evaluate in radioligand binding assays the activity of compounds of the invention, human recombinant serotonin (5-Hydroxytryptamine) 5-HT6 receptor expressed in human HeLa cells (Monsma, F. Jr. et al, Mol. Pharmacol. 43:320, 1993) in a modified Tris-HCl buffer (50 mM Tris-HCl, pH 7.4, 150 mM NaCl, 2 mM Ascorbic Acid, 0.001% BSA) was used. Compounds of the invention were incubated with 1.5 nM [3H]Lysergic acid diethylamide (LSD) for 120 min at 37° C. Non-specific binding was estimated in the presence of 5 μM Serotonin (5-HT). Receptor proteins were filtered and washed, the filters were then counted to determine [3H]LSD specifically bound. Compounds were screened at 1 μM or lower, using 1% DMSO as vehicle. Biochemical assay results are presented as the percent inhibition of specific binding in Table 5.

T1 sequence (P35367 whole entry): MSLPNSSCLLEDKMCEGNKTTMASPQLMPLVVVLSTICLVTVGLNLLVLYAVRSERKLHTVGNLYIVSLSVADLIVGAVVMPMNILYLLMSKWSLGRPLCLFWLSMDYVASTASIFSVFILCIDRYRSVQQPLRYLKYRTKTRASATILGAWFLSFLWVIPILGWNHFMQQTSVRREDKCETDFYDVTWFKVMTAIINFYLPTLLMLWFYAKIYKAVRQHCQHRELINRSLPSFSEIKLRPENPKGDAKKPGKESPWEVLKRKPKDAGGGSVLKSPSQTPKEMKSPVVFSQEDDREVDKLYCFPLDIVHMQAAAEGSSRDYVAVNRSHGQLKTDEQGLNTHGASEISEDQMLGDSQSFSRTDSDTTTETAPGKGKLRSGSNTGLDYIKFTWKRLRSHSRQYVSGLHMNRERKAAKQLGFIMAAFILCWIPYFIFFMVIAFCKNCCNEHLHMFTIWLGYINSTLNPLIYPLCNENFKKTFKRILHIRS
T5 sequence (P50406 whole entry): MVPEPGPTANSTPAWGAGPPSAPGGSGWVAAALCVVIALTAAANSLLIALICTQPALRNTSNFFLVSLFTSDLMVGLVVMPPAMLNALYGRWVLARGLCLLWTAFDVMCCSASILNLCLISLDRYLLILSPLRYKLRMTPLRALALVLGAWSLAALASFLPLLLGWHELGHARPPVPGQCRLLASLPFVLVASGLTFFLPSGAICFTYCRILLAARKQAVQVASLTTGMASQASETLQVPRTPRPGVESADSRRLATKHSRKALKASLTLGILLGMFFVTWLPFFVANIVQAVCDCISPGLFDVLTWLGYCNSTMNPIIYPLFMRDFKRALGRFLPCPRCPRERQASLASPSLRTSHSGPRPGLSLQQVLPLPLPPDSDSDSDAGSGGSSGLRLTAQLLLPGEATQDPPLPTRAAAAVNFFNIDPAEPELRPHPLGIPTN
T3 sequence (P34969 whole entry): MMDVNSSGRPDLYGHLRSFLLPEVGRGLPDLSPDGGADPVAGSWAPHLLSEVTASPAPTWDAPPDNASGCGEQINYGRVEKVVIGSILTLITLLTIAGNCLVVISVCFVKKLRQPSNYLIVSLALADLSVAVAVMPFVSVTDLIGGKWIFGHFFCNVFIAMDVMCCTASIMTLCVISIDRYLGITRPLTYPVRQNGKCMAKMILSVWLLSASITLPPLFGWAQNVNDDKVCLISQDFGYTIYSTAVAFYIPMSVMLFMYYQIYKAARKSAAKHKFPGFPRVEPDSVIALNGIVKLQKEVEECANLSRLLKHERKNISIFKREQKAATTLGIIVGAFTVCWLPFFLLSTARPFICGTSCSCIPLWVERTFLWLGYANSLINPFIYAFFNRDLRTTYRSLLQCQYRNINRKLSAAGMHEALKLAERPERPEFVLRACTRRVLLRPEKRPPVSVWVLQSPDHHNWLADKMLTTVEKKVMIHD
T4 sequence (P14416 whole entry): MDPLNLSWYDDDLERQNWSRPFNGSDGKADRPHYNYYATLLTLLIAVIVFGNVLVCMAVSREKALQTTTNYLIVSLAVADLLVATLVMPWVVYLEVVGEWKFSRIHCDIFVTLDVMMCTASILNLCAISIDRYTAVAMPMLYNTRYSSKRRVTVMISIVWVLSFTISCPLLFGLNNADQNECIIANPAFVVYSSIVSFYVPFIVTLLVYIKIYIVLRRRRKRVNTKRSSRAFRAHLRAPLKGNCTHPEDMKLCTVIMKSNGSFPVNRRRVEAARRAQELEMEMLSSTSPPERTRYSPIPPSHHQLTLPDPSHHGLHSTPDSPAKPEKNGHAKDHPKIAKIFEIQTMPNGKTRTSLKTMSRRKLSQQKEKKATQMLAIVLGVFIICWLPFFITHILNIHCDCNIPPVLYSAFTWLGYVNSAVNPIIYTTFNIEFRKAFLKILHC

Consider `Cc1ccc2c(c1)c1c(n2CC2(O)CCCc3cnccc32)CCN(C)C1` (single isomer, unassigned) [ii-74a], for which the “Binding data (Percentage inhibition) Histamine H1 (0.1 μM)” value in assay [1] turned out to be 1%. Moreover, the “Percentage inhibition of ligand binding, Serotonin 5-HT2C” value (shortened to “Percentage inhibition of ligand binding”) in assay [2] is on record as 28%.
In the case of `Cc1ccc2c(c1)c1c(n2CC2(O)CCCc3cnccc32)CCN(C)C1` (single isomer, unassigned) [ii-74b], the “Binding data (Percentage inhibition) Histamine H1 (0.1 μM)” value in assay [1] is 11%. For the same compound, in assay [2], the “Percentage inhibition of ligand binding” value is 53%.
In general, inhibition refers to the drop in the measured response relative to a control, in per cent. With `Cc1ccc2c(c1)c1c(n2CC2(O)CCCc3ncccc32)CCN(C)C1` (single isomer, unassigned) [ii-112a], the “Binding data (Percentage inhibition) Histamine H1 (0.1 μM)” value in assay [1] is on record as 4%. In assay [2], the inhibition at 0.1 µM is 42%.
As for `Cc1ccc2c(c1)c1c(n2CC2(O)CCCc3ncccc32)CCN(C)C1` (single isomer, unassigned) [ii-112b], the “Binding data (Percentage inhibition) Histamine H1 (0.1 μM)” value in assay [1] came out at 13%. In assay [2], the “Percentage inhibition of ligand binding” value is listed as 37%.
Consider `Cc1ccc2c(c1)c1c(n2CC2(O)CCCc3ccncc32)CCN(C)C1` (single isomer, unassigned) [ii-113a], for which the “Binding data (Percentage inhibition) Histamine H1 (0.1 μM)” value in assay [1] came out at 13%. Further, in assay [2], the inhibition at 0.1 µM turned out to be 37%.
For the compound `Cc1ccc2c(c1)c1c(n2/C=C2/CCCc3ccccc32)CCN(C)C1` [i-2], the inhibition at 0.1 µM is 28% in assay [1], 97% in assay [3], 100% in assay [2] and 102% in assay [5]. Besides, in assay [4], the inhibition at 1 µM came to 47%.
With `Cc1ccc2c(c1)c1c(n2/C=C2\CCCc3ccccc32)CCN(C)C1` [i-3], the inhibition at 0.1 µM was determined as 32% in assay [1], 96% in assay [3], 100% in assay [2] and 83% in assay [5]. Also, in assay [4], the inhibition at 1 µM turned out to be 49%.
